Experimental data reported in the NIST ThermoML archive (doi:10.1016/j.jct.2015.01.005).
± gives the expanded uncertainty stated by the source.

Experiment: Molar enthalpy of transition or fusion
Conditions: DSC

Molar enthalpy of transition or fusion (Crystal 1): 2.9 ± 0.2 kJ/mol
Molar enthalpy of transition or fusion (Crystal 2): 25 ± 0.7 kJ/mol
SMILES: O[C@@H]1[C@@H](O)[C@@H]2OC[C@@H](O2)[C@H]1O [1,6-anhydro-β-D-glucopyranose]
